The values that follow come from paper PMC8209957 (Cell, 2021).

In the experiment the target is MEK1-C222 (Homo sapiens, UniProt Q02750, S222C/C277S/C376S). The experiment can be described thus: differential scanning fluorimetry. In kind it is binding. The settings on record: thermal shift with and without Mg2+; values only in figure. (In general: In DSF a fluorescence change marks the thermal transition of the protein.)

`Nc1ncnc2c1ncn2[C@@H]1O[C@H](COP(=O)(O)OP(=O)(O)OP(O)(O)=S)[C@@H](O)[C@H]1O` [ATPγS]: the differential scanning fluorimetry entry is “to form MEK1•ATP(±Mg) and MEK1•ATPγS(±Mg)”.
